Read-outs that look alike come from different tables or passages of the source.
What was measured:
[1] = tested on: MOLM-13 cells; experiment: Proliferation assay, MOLM-13 (CellTiter-Glo, 7 days); type: cell-based, human
Procedure, shortened: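 Cells were seeded at line-specific low densities for linear growth, exposed to 3.16-fold serial compound dilutions at 0.1% DMSO, and incubated 7 days at 37 °C, 5% CO2. Viability was read by CellTiter-Glo 2.0 luminescence; IC50 came from one-site fits of % inhibition, normalized between DMSO-treated cells (100%) and a day-0 plate (0%).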

[2] = Caco-2 cell monolayers intrinsic permeation assay in the presence of efflux inhibitors; type: in vitro ADME; details: Caco-2, with efflux inhibitors
Text: Caco-2 cells were obtained from American Type Culture Collection (ATCC). HEPES, penicillin, streptomycin, bovine serum albumin (BSA) were obtained from Beijing Xinjingke Biotechnology Co, Ltd. Fetal bovine serum, Hank's balanced salt solution (HBSS) and non-essential amino acids (NEAA) were purchased from Gibco. Dulbecco's Modified Eagle's Medium (DMEM) was purchased from Corning and MES from Sigma. HTS Transwell-24 permeable supports were purchased from Corning. Zosuquidar and Ko-143 were obtained from MedChemExpress and Benzbromarone from Sigma.
The Caco-2 cell culture medium consisted of DMEM with high glucose and L-glutamine supplemented with 10% FBS, 0.1 mg/mL streptomycin, 100 units of penicillin, 0.6 mg/mL kanamycin sulfate and 1×NEAA. […] culture medium was added to each Transwell insert with 800 mL added to each well of the reservoir. After incubation at 37° C. in 5% CO2 for 1 hour, the plates were ready for seeding.
The cells were cultivated in T-75 flasks at 37° C., 5% CO2, 95% relative humidity. At 80 to 90% confluence, cells were treated with trypsin/EDTA treatment until they became detached. The trypsin/EDTA was inactivated by adding excess serum containing medium. The cell suspension was centrifuged at 120 g for 10 minutes followed by resuspension of the cell pellet in seeding medium at a cell density of 7.92×10^5 cells/mL.
[…] of the resulting cell suspension was added to each well of the Transwell plate and incubated for 14 to 18 days, with medium replaced every other day. After incubation for 14 to 18 days, the cells should have reached confluence and should be tested for electrical resistance using a Millicel Epithelial Volt-Ohm measuring system (Millipore).
The cell monolayers were washed twice with pre-warmed HBSS and incubated at 37° C. for 30 minutes under gentle shaking (480 rpm).
The compound under test was presented as a 10 mM DMSO stock solution. 2 mL of the 10 mM stock was added to 8 mL DMSO to produce a 2 mM stock. 2 mL was added to 398 mL of HBSS containing 10 mM Zosuquidar, 30 mM Benzbromarone and 2 mM KO-143 to make a […] solution.
210 mL of the test compound solution was added to the apical compartment of the Transwell plate, with a 10 mL sample taken to act as the time 0 sample. The wells of the receiver (basolateral) compartment were filled with 800 mL HBSS (containing the efflux inhibitors). The plates were incubated at 37° C. with shaking at 480 rpm for 120 minutes with sampling at 45 and 120 minutes.
At each sampling time (0, 45 and 120 minutes) 10 mL was removed from the apical compartment and add to 90 mL (HBSS containing the efflux inhibitors). 100 mL was removed from each basolateral compartment. 3 volumes of cold acetonitrile containing internal standard was added to each sample and vortex mixed for 10 minutes at 100 rpm. Samples were then centrifuged at 400 rpm for 20 minutes. 50 mL of the supernatant was taken for LC/MS/MS analysis to determine compound concentration.
The apparent permeability (Papp), in units of centimetre per second, were calculated for Caco-2 drug transport using the following equation: […]
Where CR is the concentration of compound in the receiver side at the respective time point, CD is the concentration of compound in the donor side at the respective timepoint. Area is the surface area of the membrane and time is 4500 seconds (75×60 seconds).

Structure (SMILES)	IC50 ([1]; Homo sapiens, MOLM-13, 168 h) [nM]	Papp A→B [2] [×10⁻⁶ cm/s]	IC50 [1] [nM]
C[C@@H]1COC[C@@H](C)N1C(=O)c1cc(F)ccc1-n1cc(C(=O)C2CCN(C(=O)[C@H]3N[C@@H]4CC[C@H]3C4)CC2)c2ccncc21 [Example 34, (1-((1R,3S,4S)-2-Azabicyclo[2.2.1]heptane-3-carbonyl)piperidin-4-yl)(1-(2-((3R,5R)-3,5-dimethylmorpholine-4-carbonyl)-4-fluorophenyl)-1H-pyrrolo[2,3-c]pyridin-3-yl)methanone]	62	0.2	–
CC(C)N(C(=O)c1cc(F)ccc1-n1cc(C(=O)C2CCN(C(=O)[C@H]3N[C@H]4C[C@@H]3[C@@H](F)C4)CC2)c2ccncc21)C(C)C [Example 22, 5-Fluoro-2-(3-(1-((1S,3S,4S,5S)-5-fluoro-2-azabicyclo[2.2.1]heptane-3-carbonyl)piperidine-4-carbonyl)-1H-pyrrolo[2,3-c]pyridin-1-yl)-N,N-diisopropylbenzamide]	30	3	–
CCN(C(=O)c1cc(F)ccc1-n1c(C)c(C(=O)C2CCN(C(=O)[C@@H]3CCC(C)(C)N3)CC2)c2ccncc21)C(C)C (single isomer, unassigned) [Example 50-2]	–	1.2	44
CC(C)c1ncccc1-c1cc(F)ccc1-n1cc(C(=O)C2CN(C(=O)[C@H]3N[C@@H]4CC[C@H]3C4)C2)c2ccncc21 [Example 10, (1-((1R,3S,4S)-2-Azabicyclo[2.2.1]heptane-3-carbonyl)azetidin-3-yl)(1-(4-fluoro-2-(2-isopropylpyridin-3-yl)phenyl)-1H-pyrrolo[2,3-c]pyridin-3-yl)methanone]	23	2.6	–
CC(C)N(C(=O)c1cc(F)ccc1-n1cc(C(=O)[C@H]2CCN(C[C@H]3CC[C@H](NS(C)(=O)=O)CC3)C2)c2ccncc21)C(C)C [Example 1, 5-Fluoro-N,N-diisopropyl-2-(3-((S)-1-(((1r,4S)-4-(methylsulfonamido)-cyclohexyl)methyl)pyrrolidine-3-carbonyl)-1H-pyrrolo[2,3-c]pyridin-1-yl)benzamide]	149	2.7	–
CC(C)N(C(=O)c1cc(F)ccc1-n1cc(C(=O)[C@H]2CCN(C(=O)[C@H]3N[C@@H]4CC[C@H]3C4)C2)c2ccncc21)C(C)C [Example 2, 2-(3-((S)-1-((1R,3S,4S)-2-Azabicyclo[2.2.1]heptane-3-carbonyl)pyrrolidine-3-carbonyl)-1H-pyrrolo[2,3-c]pyridin-1-yl)-5-fluoro-N,N-diisopropylbenzamide]	105	0.4	–
CC(C)N(C(=O)c1cc(F)ccc1-n1cc(C(=O)C2CCN(C(=O)[C@H]3N[C@@H]4CC[C@H]3C4)CC2)c2ccncc21)C(C)C [Example 16, 2-(3-(1-((1R,3S,4S)-2-Azabicyclo[2.2.1]heptane-3-carbonyl)piperidine-4-carbonyl)-1H-pyrrolo[2,3-c]pyridin-1-yl)-5-fluoro-N,N-diisopropylbenzamide]	35	0.6	–
CC(C)N(C(=O)c1cc(F)ccc1-n1cc(C(=O)C2CCN(C(=O)[C@H]3NC[C@@H]4CC[C@@H]43)CC2)c2ccncc21)C(C)C (relative stereo) [Example 25, rel-2-(3-(1-((1R,2R,5S)-3-Azabicyclo[3.2.0]heptane-2-carbonyl)piperidine-4-carbonyl)-1H-pyrrolo[2,3-c]pyridin-1-yl)-5-fluoro-N,N-diisopropylbenzamide]	50	3	–
CC(C)N(C(=O)c1cc(F)ccc1-n1cc(C(=O)C2CN(C(=O)[C@H]3N[C@@H]4CC[C@H]3C4)C2)c2ccncc21)C(C)C [Example 5, 2-(3-(1-((1R,3S,4S)-2-Azabicyclo[2.2.1]heptane-3-carbonyl)azetidine-3-carbonyl)-1H-pyrrolo[2,3-c]pyridin-1-yl)-5-fluoro-N,N-diisopropylbenzamide]	74	1.2	–
CC(C)N(C(=O)c1cc(F)ccc1-n1cc(C(=O)C2CN(C(=O)[C@H]3NC4CCC3CC4)C2)c2ccncc21)C(C)C [Example 6, (S)-2-(3-(1-(2-Azabicyclo[2.2.2]octane-3-carbonyl)azetidine-3-carbonyl)-1H-pyrrolo[2,3-c]pyridin-1-yl)-5-fluoro-N,N-diisopropylbenzamide]	73	< 0.5	–
CCN(C(=O)c1cc(F)ccc1-n1c(C)c(C(=O)[C@@H]2CCN(C(=O)[C@@H]3CC[C@H](C)N3)[C@@H](C)C2)c2ccncc21)C(C)C (stereo in doubt) [Example 63, N-Ethyl-5-fluoro-N-isopropyl-2-(2-methyl-3-((2S,4RS)-2-methyl-1-((2S,5S)-5-methylpyrrolidine-2-carbonyl)piperidine-4-carbonyl)-1H-pyrrolo[2,3-c]pyridine-1-yl)benzamide]	47	1.5	–
Cc1c(C(=O)[C@@H]2CCN(C(=O)[C@@H]3CC[C@H](C)N3)[C@@H](C)C2)c2ccncc2n1-c1ccc(F)cc1C(=O)N(C(C)C)C(C)C (stereo in doubt) [Example 62, 5-Fluoro-N,N-diisopropyl-2-(2-methyl-3-((2S,4RS)-2-methyl-1-((2S,5S)-5-methylpyrrolidine-2-carbonyl)piperidine-4-carbonyl)-1H-pyrrolo[2,3-c]pyridin-1-yl)benzamide]	52	4.9	–
CCN(C(=O)c1cc(F)ccc1-n1c(C)c(C(=O)C2CCN(C(=O)[C@H]3NC[C@@H]4C[C@@H]43)CC2)c2ccncc21)C(C)C (single isomer, unassigned) [Example 48-1]	–	–	1250
Cc1c(C(=O)C2CCN(C(=O)[C@H]3NC[C@@H]4C[C@@H]43)CC2)c2ccncc2n1-c1ccc(F)cc1C(=O)N(C(C)C)[C@H](C)C(F)(F)F (single isomer, unassigned) [Example 57-1]	–	–	93
Cc1c(C(=O)C2CCN(C(=O)[C@H]3NC[C@@H]4C[C@@H]43)CC2)c2ccncc2n1-c1ccc(F)cc1C(=O)N(C(C)C)C(C)C (single isomer, unassigned) [Example 55-2]	–	–	25
CCN(C(=O)c1cc(F)ccc1-n1c(C)c(C(=O)C2CCN(C(=O)[C@H]3NC[C@@H]4C[C@@H]43)CC2)c2ccncc21)C(C)C (single isomer, unassigned) [Example 48-2]	–	–	27
Cc1c(C(=O)C2CCN(C(=O)[C@H]3NC[C@@H]4C[C@@H]43)CC2)c2ccncc2n1-c1ccc(F)cc1C(=O)N(CC(F)(F)F)C(C)C (single isomer, unassigned) [Example 51-2]	–	–	31
CCN(C(=O)c1cc(F)ccc1-n1c(C)c(C(=O)[C@@H]2CCN(C(=O)[C@@H]3CCC4(CC4)N3)[C@@H](C)C2)c2ccncc21)C(C)C (single isomer, unassigned) [Example 52-1, N-Ethyl-5-fluoro-N-isopropyl-2-(2-methyl-3-((2R*,4S*)-2-methyl-1-((S)-4-azaspiro[2.4]heptane-5-carbonyl)piperidine-4-carbonyl)-1H-pyrrolo[2,3-c]pyridin-1-yl)benzamide]	–	10.9	–
CCN(C(=O)c1cc(F)ccc1-n1c(C)c(C(=O)[C@@H]2CCN(C(=O)[C@@H]3CCC4(CC4)N3)[C@@H](C)C2)c2ccncc21)C(C)C (single isomer, unassigned) [Example 52-2, N-Ethyl-5-fluoro-N-isopropyl-2-(2-methyl-3-((2R*,4S*)-2-methyl-1-((S)-4-azaspiro[2.4]heptane-5-carbonyl)piperidine-4-carbonyl)-1H-pyrrolo[2,3-c]pyridin-1-yl)benzamide]	–	–	48
Cc1c(C(=O)C2CCN(C(=O)[C@@H]3CCC(C)(C)N3)CC2)c2ccncc2n1-c1ccc(F)cc1C(=O)N(C(C)C)C(C)C (single isomer, unassigned) [Compound 56-2]	–	–	40

Source: patent US20240335431A1, “1-H-PYRROLO[2,3-c]PYRIDINE COMPOUNDS” (Acerta Pharma B.V., priority 2023, published 2024)
